From article PMC4769034 (Journal of medicinal chemistry, 2015)
Values after ≈ are worked out from the molar mass of the structure shown.

Tests used:
[1] = test system: PKA; conditions: cited from earlier work
[2] = no reference given; cited from earlier work
[3] = test system: rickettsial infection; conditions: mouse, in vivo; cited from earlier work
[4] = test system: MIA PaCa-2 cells; conditions: 10 mg/kg via i.p. injection for 3 weeks; cited from earlier work
[5] = test system: pancreatic ductal adenocarcinoma (PDA) cells; conditions: cited from earlier work
[6] = cited from earlier work
[7] = test system: hERG; conditions: cited from earlier work
[8] = test system: plasma leptin; conditions: 50 mg/kg by oral gavage for 3 weeks; cited from earlier work
[9] = test system: CYP450 enzymes; conditions: cited from earlier work
[10] = test system: PDEs; conditions: cited from earlier work
[11] = test system: Middle East respiratory syndrome coronavirus (MERS-Cov); conditions: cited from earlier work
[12] = cited from earlier work; remark: listed apart in the source
[13] = target: T1, EPAC1 (Homo sapiens, UniProt O95398); assay: In vitro EPAC1 GEF activity assay; format: biochemical
T1 sequence (O95398 1-881 isoform O95398-3): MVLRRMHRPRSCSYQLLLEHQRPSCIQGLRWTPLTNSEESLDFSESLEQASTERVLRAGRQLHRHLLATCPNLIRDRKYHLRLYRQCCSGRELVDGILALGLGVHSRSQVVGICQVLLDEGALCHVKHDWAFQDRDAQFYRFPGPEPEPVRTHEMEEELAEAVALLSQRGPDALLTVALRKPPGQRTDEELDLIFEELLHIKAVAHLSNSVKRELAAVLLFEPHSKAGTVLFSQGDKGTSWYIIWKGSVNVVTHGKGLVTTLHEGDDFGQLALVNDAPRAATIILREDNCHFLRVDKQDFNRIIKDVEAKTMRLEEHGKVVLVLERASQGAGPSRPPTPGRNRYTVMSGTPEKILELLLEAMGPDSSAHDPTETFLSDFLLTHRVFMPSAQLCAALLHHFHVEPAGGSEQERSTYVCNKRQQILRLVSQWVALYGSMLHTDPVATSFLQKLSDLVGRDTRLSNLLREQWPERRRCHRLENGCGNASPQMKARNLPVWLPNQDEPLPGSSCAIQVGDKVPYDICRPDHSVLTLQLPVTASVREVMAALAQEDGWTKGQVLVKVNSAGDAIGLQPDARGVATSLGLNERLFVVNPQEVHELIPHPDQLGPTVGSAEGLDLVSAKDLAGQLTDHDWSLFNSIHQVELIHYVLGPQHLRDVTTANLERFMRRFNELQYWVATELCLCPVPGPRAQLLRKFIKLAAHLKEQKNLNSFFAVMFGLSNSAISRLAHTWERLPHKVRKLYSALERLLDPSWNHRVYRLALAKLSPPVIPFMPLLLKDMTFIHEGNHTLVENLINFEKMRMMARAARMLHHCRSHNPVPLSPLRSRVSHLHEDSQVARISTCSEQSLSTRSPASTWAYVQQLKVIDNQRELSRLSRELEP

[14] = target: T2, EPAC2 (Mus musculus, UniProt Q9EQZ6); assay: 8-NBD-cAMP competition assay; conditions: vs compound 1
T2 sequence (Q9EQZ6 1-993 isoform Q9EQZ6-3): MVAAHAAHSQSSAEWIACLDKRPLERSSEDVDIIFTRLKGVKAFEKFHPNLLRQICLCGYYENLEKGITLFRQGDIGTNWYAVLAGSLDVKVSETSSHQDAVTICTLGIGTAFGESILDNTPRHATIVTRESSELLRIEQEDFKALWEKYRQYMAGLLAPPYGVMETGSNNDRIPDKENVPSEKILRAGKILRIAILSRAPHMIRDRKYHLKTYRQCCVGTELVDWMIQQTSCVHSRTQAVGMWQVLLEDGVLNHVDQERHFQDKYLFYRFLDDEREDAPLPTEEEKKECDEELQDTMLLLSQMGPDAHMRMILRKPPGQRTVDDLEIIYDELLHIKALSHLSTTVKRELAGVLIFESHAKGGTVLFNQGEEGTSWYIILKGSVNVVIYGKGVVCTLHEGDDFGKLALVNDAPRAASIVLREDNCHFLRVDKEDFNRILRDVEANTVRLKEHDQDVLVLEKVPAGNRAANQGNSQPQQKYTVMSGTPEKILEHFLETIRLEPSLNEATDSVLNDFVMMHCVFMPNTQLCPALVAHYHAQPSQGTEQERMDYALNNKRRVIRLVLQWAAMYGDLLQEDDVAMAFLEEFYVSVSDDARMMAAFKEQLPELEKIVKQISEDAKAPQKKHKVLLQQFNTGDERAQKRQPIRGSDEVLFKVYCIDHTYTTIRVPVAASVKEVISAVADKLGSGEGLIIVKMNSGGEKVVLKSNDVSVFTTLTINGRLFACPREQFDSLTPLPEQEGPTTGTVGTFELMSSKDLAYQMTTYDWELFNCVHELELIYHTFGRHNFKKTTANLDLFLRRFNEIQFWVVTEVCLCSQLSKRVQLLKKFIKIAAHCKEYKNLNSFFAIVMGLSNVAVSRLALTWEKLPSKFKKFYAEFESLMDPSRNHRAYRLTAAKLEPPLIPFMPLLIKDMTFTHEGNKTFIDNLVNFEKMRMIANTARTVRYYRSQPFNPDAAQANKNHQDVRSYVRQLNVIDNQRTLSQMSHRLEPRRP

[15] = Solubility in ethanol by HPLC analysis; conditions: vs compound 1
[16] = Solubility in water by HPLC analysis

CC(C)(C)c1cc(C(=O)/C(C#N)=N/Nc2cccc(Cl)c2)no1 [Compound 1, 2-(5-tert-butylisoxazol-3-yl)-N′-(3-chlorophenyl)-2-oxoacetohy-drazonoyl cyanide]
effect toward PKA [1]: no effect | membrane permeability [2]: good membrane permeability | survival after rickettsial infection [3]: dramatically improved survival | metastasis to the liver [4]: significantly decrease metastasis to the liver | PDA cell migration and invasion [5]: significant decrease | effect on PDA cell proliferation and viability [5]: no obvious effect | bioavailability [6]: excellent bioavailability | inhibitory activity toward hERG [7]: very weak inhibitory activities | plasma leptin [8]: significantly reduces plasma leptin | inhibitory activity toward CYP450 enzymes [9]: very weak inhibitory activities | inhibitory effects on PDEs [10]: no significant inhibitory effects | MERS-CoV viral yields [11]: significantly reduce viral yields | toxicity to animals [12]: low toxicity

CC(C)(C)c1cc(C(=O)/C(C#N)=N/Nc2cc(Cl)cc(Cl)c2)no1 [Compound 22, 2-(5-tert-Butylisoxazol-3-yl)-N′-(3,5-dichlorophenyl)-2-oxoacetohydrazonoyl Cyanide]
IC50 [13]: < 5 µM | fold more potent than parent compound 1 [14]: about 5 fold

CC(C)(C)c1cc(C(=O)/C(C#N)=N/Nc2cc(C(F)(F)F)cc(C(F)(F)F)c2)no1 [Compound 25, N′-(3,5-Bis(trifluoromethyl)phenyl)-2-(5-tert-butylisoxazol-3-yl)-2-oxoacetohydrazonoyl Cyanide]
fold improvement of solubility in ethanol in comparison with 1 [15]: ~10 fold | fold improvement of solubility in water in comparison with 1 ([16]; vs compound 1): approximately 70 fold | solubility at 24 h ([16]; water): 418 ± 17.3 µg/mL (≈ 968 µM)
